In patent US10383880B2 (Reset Therapeutics, Inc., priority 2012, dated 2019):

system: Per2-dLuc U2OS reporter cells; test: Per2 assay for evaluating the potency of test compounds (high-throughput circadian assay); assay type: cell-based; settings: Homo sapiens, U2OS, stable U2OS reporter cells harboring Per2-dLuc; luminescence monitored over 4-5 days at 35° C.
Experimental: Compounds were screened by using a high-throughput circadian assay system as previously described in Zhang, E. E. et al. Cell, 2009, 139, 199-210. In brief, stable U2OS reporter cells harboring Per2-dLuc were plated at a density of 8,000 cells/well in Corning 96-well, solid white, flat bottom, TC-treated microplates (Corning®), and incubated for 24 hours at 37° C. in the presence of 5% CO2. The cells were then synchronized by serum shock by media exchange to a minimal explant media (10 mM HEPES (pH 7.0), 2% B27, 1×PSG (Invitrogen®), and 1.0 mM beetle luciferin (Promega®)) followed by the addition of the compounds of formula I dissolved in dimethylsulfoxide (0.5% final dimethylsulfoxide concentration). Gene expression was monitored by measuring luminescence (TecanR M200) over 4-5 days at 35° C. The period, amplitude, and phase of the associated circadian rhythms were determined using Multicycle™ software (Actimetrics, Inc). EC50 values of the compounds of formula I were calculated using Graphpad™ (Prism®).

SMILES | EC50
COC(=O)N1CCC(N(CC(O)Cn2c3ccccc3c3ccccc32)S(C)(=O)=O)CC1 (centres unmarked) [Compound 129, Methyl 4-(N-(3-(9H-carbazol-9-yl)-2-hydroxypropyl)methylsulfonamido)piperidine-1-carboxylate] | 386 nM
O=S1(=O)CCCN1CC(O)Cn1c2cc(F)ccc2c2c(F)cccc21 (centres unmarked) [Compound 97, N-(3-(2,5-Difluoro-9H-carbazol-9-yl)-2-hydroxypropyl)-isothiazolidine-1,1-dioxide] | 319 nM
O=S1(=O)CCCCN1C[C@H](O)Cn1c2ccccc2c2ccccc21 [Compound 41, (R)-N-(3-(9H-Carbazol-9-yl)-2-hydroxypropyl)-1,2-thiazinane 1,1-dioxide] | 343 nM
Cc1ccc(N(CC(O)Cn2c3ccccc3c3ccccc32)S(C)(=O)=O)cc1 (centres unmarked) [Compound 25, N-(3-(9H-Carbazol-9-yl)-2-hydroxypropyl)-N-p-tolylmethanesulfonamide] | 170 nM
CCN1CCN(CC(O)Cn2c3ccc(F)cc3c3cc(F)ccc32)S1(=O)=O (centres unmarked) [Compound 216] | 150 nM
CN(CC(O)Cn1c2ccc(F)cc2c2c(F)cccc21)S(C)(=O)=O (centres unmarked) [Compound 110, N-(3-(3,5-Difluoro-9H-carbazol-9-yl)-2-hydroxypropyl)-N-methylmethanesulfonamide] | 3630 nM
COC1CCS(=O)(=O)N(CC(O)Cn2c3ccccc3c3ccccc32)C1 (centres unmarked) [Compound 112, N-(3-(9H-Carbazol-9-yl)-2-hydroxypropyl)-4-methoxy-1,2-thiazinane-1,1-dioxide] | 44 nM
CS(=O)(=O)N(CC(O)Cn1c2ccccc2c2ccccc21)CC1CCCCO1 (centres unmarked) [Compound 53, N-(3-(9H-Carbazol-9-yl)-2-hydroxypropyl)-N-((tetrahydro-2H-pyran-2-yl)methyl)methanesulfonamide] | 578 nM
CC(O)(CN1CCCN(C2CCCC2)S1(=O)=O)Cn1c2ccc(F)cc2c2cc(F)ccc21 (centres unmarked) [Compound 221, 2-(3-(3,6-Difluoro-9H-carbazol-9-yl)-2-hydroxy-2-methylpropyl)-6-cyclopentyl-1,2,6-thiadiazinane-1,1-dioxide] | 5520 nM
CCN1CCCN(CC(O)Cn2c3ccc(F)cc3c3cc(F)ccc32)S1(=O)=O (centres unmarked) [Compound 226, 2-(3-(3,6-Difluoro-9H-carbazol-9-yl)-2-hydroxypropyl)-6-ethyl-1,2,6-thiadiazinane-1,1-dioxide] | 314 nM
CCOc1ccc(N(CC(O)Cn2c3ccc(F)cc3c3cc(F)ccc32)S(C)(=O)=O)cc1 (centres unmarked) [Compound 202, N-(3-(3,6-Difluoro-9H-carbazol-9-yl)-2-hydroxypropyl)-N-(4-ethoxyphenyl)methanesulfonamide] | 2100 nM
CC(C)N(CC(O)Cn1c2ccc(F)cc2c2cc(F)ccc21)S(C)(=O)=O (centres unmarked) [Compound 117, N-(3-(3,6-Difluoro-9H-carbazol-9-yl)-2-hydroxypropyl)-N-isopropylmethanesulfonamide] | 127 nM
CS(=O)(=O)N(Cc1ccc(F)cc1)CC(O)Cn1c2ccccc2c2ccccc21 (centres unmarked) [Compound 60, N-(3-(9H-Carbazol-9-yl)-2-hydroxypropyl)-N-(4-fluorobenzyl)methanesulfonamide] | 1220 nM
O=S1(=O)CCCN1CC(O)Cn1c2ccccc2c2ccccc21 (centres unmarked) [Compound 20, N-(3-(9H-Carbazol-9-yl)-2-hydroxypropyl)isothiazolidine 1,1-dioxide] | 29 nM
CN1CCCN(CC(C)(O)Cn2c3ccc(F)cc3c3cc(F)ccc32)S1(=O)=O (centres unmarked) [Compound 170, 2-(3-(3,6-Difluoro-9H-carbazol-9-yl)-2-hydroxy-2-methylpropyl)-6-methyl-1,2,6-thiadiazinane-1,1-dioxide] | 1260 nM
CS(=O)(=O)N(Cc1ccccc1F)CC(O)Cn1c2ccccc2c2ccccc21 (centres unmarked) [Compound 68, N-(3-(9H-Carbazol-9-yl)-2-hydroxypropyl)-N-(2-fluorobenzyl)methanesulfonamide] | 1990 nM
CCN1CCCN(CC(C)(O)Cn2c3ccc(F)cc3c3cc(F)ccc32)S1(=O)=O (centres unmarked) [Compound 227, 2-(3-(3,6-Difluoro-9H-carbazol-9-yl)-2-hydroxy-2-methylpropyl)-6-ethyl-1,2,6-thiadiazinane-1,1-dioxide] | 5290 nM
O=S(=O)(CC(F)F)N(Cc1ccco1)CC(O)Cn1c2ccccc2c2ccccc21 (centres unmarked) [Compound 8, N-(3-(9H-Carbazol-9-yl)-2-hydroxypropyl)-2,2-difluoro-N-(furan-2-ylmethyl)ethanesulfonamide] | 6960 nM
CC(C)CN(CC(O)Cn1c2ccccc2c2ccccc21)S(C)(=O)=O (centres unmarked) [Compound 49, N-(3-(9H-Carbazol-9-yl)-2-hydroxypropyl)-N-isobutylmethanesulfonamide] | 100 nM

SMILES | EC50
CS(=O)(=O)N(CC(O)Cn1c2ccccc2c2ccccc21)C1CCC1 (centres unmarked) [Compound 57, N-(3-(9H-Carbazol-9-yl)-2-hydroxypropyl)-N-cyclobutylmethanesulfonamide] | 35 nM
CC(C)CS(=O)(=O)N(Cc1ccco1)CC(O)Cn1c2ccccc2c2ccccc21 (centres unmarked) [Compound 13, N-(3-(9H-Carbazol-9-yl)-2-hydroxypropyl)-N-(furan-2-ylmethyl)-2-methylpropane-1-sulfonamide] | 454 nM
CS(=O)(=O)N(CC(O)Cn1c2ccccc2c2ccccc21)c1cccnn1 (centres unmarked) [Compound 79, N-(3-(9H-Carbazol-9-yl)-2-hydroxypropyl)-N-(pyridazin-3-yl)methanesulfonamide] | 2800 nM
CS(=O)(=O)N(CC(O)Cn1c2ccc(F)cc2c2ccc(F)cc21)C1CCC1 (centres unmarked) [Compound 166, N-Cyclobutyl-N-(3-(2,6-difluoro-9H-carbazol-9-yl)-2-hydroxypropyl)methanesulfonamide] | 147 nM
CS(=O)(=O)NCC(O)Cn1c2ccc(F)cc2c2cc(F)ccc21 (centres unmarked) [Compound 154, N-(3-(3,6-Difluoro-9H-carbazol-9-yl)-2-hydroxypropyl)methanesulfonamide] | 680 nM
CS(=O)(=O)N(CC(O)Cn1c2ccccc2c2ccccc21)C1CC(F)C1 (centres unmarked) [Compound 147, N-(3-(9H-Carbazol-9-yl)-2-hydroxypropyl)-N-(3-fluorocyclobutyl)methanesulfonamide] | 980 nM
O=S1(=O)CCCCN1CC(O)Cn1c2ccc(F)cc2c2ccc(F)cc21 (centres unmarked) [Compound 100, N-(3-(2,6-Diflouoro-9H-carbazol-9-yl)-2-hydroxypropyl)-1,2-thiazinane 1,1-dioxide] | 32 nM
CS(=O)(=O)N(CC(O)Cn1c2ccc(F)cc2c2cc(F)ccc21)c1ccc(C2CC2)cc1 (centres unmarked) [Compound 207, N-(4-Cyclopropylphenyl)-N-(3-(3,6-difluoro-9H-carbazol-9-yl)-2-hydroxypropyl)methanesulfonamide] | 2950 nM
CC(O)(CN(C1CCC1)S(C)(=O)=O)Cn1c2ccc(F)cc2c2cc(F)ccc21 (centres unmarked) [Compound 149, N-Cyclobutyl-N-(3-(3,6-difluoro-9H-carbazol-9-yl)-2-hydroxy-2-methylpropyl)methanesulfonamide] | 7620 nM
CC(O)(CN(C1(C)CCC1)S(C)(=O)=O)Cn1c2ccc(F)cc2c2cc(F)ccc21 (centres unmarked) [Compound 187, N-(3-(3,6-Difluoro-9H-carbazol-9-yl)-2-hydroxy-2-methylpropyl)-N-(1-methylcyclobutyl)methanesulfonamide] | 2750 nM
CS(=O)(=O)N(Cc1ccco1)CC(O)Cn1c2ccc(F)cc2c2cc(F)ccc21 (centres unmarked) [Compound 88, N-(3-(3,6-Difluoro-9H-carbazol-9-yl)-2-hydroxypropyl)-N-(furan-2-ylmethyl)methanesulfonamide] | 940 nM
COC1CCS(=O)(=O)N(CC(O)Cn2c3ccc(F)cc3c3cc(F)ccc32)C1 (centres unmarked) [Compound 155, N-(3-(3,6-Difluoro-9H-carbazol-9-yl)-2-hydroxypropyl)-4-methoxy-1,2-thiazinane-1,1-dioxide] | 324 nM
CS(=O)(=O)N(CC(O)Cn1c2cc(F)ccc2c2ccc(F)cc21)C1CC1 (centres unmarked) [Compound 161, N-Cyclopropyl-N-(3-(2,7-difluoro-9H-carbazol-9-yl)-2-hydroxypropyl)methanesulfonamide] | 1140 nM
O=S1(=O)N(CC(O)Cn2c3ccc(F)cc3c3cc(F)ccc32)CCN1C1CCCCC1 (centres unmarked) [Compound 233] | 418 nM
CS(=O)(=O)N(Cc1ccco1)CC(O)Cn1c2ccc(F)cc2c2ccc(F)cc21 (centres unmarked) [Compound 102, N-(3-(2,6-Difluoro-9H-carbazol-9-yl)-2-hydroxypropyl)-N-(furan-2-ylmethyl)methanesulfonamide] | 3250 nM
CS(=O)(=O)N(CC(O)Cn1c2ccc(F)cc2c2cc(F)ccc21)c1ccc(OC2CC2)cc1 (centres unmarked) [Compound 212, N-(4-Cyclopropoxyphenyl)-N-(3-(3,6-difluoro-9H-carbazol-9-yl)-2-hydroxypropyl)methanesulfonamide] | 1800 nM
CS(=O)(=O)N(CC(O)Cn1c2ccccc2c2ccccc21)C1CCc2ccccc21 (single isomer, unassigned) [Compound 61, N-(3-(9H-Carbazol-9-yl)-2-hydroxypropyl)-N-(2,3-dihydro-1H-inden-1-yl)methanesulfonamide] | 4470 nM
COc1ccc(N(CC(O)Cn2c3ccccc3c3ccccc32)S(C)(=O)=O)cc1 (centres unmarked) [Compound 21, N-(3-(9H-Carbazol-9-yl)-2-hydroxypropyl)-N-(4-methoxyphenyl)methanesulfonamide] | 440 nM

same assay, conditions: stable U2OS reporter cells harboring Per2-dLuc; luminescence monitored over 4-5 days at 35° C.

SMILES | EC50
CC1CCCC1N(CC(O)Cn1c2ccc(F)cc2c2cc(F)ccc21)S(C)(=O)=O (single isomer, unassigned) [Compound 193B, N-(3-(3,6-Difluoro-9H-carbazol-9-yl)-2-hydroxypropyl)-N-(2-methylcyclopentyl)methanesulfonamide] | 654 nM
